According to patent publication US7897371B2, “Activation of mutated RAC-PK” (Novartis AG, priority 1995, dated 2011):
Read-outs that look alike come from different tables or passages of the source.

Tests used:
RAC-PKα [1] = assay type: cell-based, human
MAPKAP kinase-2 = assay type: cell-based
RAC-PKα [2] = target: T1, RAC-PKα (Homo sapiens, UniProt P31749, T308A); assay type: biochemical; conditions: COS-1 cells
T1 construct: made in house; host or cells: COS-1 cells (DEAE-dextran transfection, serum-starved), immunoprecipitated with 12CA5 antibody
T1 sequence (P31749 whole entry T308A): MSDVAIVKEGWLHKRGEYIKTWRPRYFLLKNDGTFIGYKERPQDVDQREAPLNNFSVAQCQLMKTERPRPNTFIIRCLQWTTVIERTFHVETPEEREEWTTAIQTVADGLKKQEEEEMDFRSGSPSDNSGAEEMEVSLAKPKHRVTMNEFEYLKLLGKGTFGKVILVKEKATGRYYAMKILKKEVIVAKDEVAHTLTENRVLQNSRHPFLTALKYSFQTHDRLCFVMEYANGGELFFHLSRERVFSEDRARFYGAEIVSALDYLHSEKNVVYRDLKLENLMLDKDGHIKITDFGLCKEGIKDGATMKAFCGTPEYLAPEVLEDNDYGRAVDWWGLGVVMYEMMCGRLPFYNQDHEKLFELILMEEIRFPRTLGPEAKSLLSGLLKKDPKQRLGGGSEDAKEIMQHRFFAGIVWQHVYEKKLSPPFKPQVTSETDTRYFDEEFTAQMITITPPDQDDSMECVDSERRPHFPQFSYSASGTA

RAC-PKα [3] = assay type: biochemical, human; conditions: expressed in COS-1 cells, without MAPKAP kinase-2
GSK3β = assay type: cell-based, human
Chain of GSK3β (P49841 whole entry): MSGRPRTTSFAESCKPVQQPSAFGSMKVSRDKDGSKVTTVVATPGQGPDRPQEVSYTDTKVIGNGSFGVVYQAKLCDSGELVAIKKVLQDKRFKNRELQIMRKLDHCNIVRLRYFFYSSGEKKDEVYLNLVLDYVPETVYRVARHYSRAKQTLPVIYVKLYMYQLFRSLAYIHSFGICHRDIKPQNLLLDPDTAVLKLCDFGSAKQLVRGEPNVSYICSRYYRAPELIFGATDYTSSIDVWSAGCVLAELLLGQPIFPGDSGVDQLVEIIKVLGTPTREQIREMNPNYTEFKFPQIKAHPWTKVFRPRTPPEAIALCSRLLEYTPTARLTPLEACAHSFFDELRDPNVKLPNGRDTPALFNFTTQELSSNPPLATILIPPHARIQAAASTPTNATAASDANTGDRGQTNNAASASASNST

RAC-PKα [4] = conditions: 293 cells
mixed isoforms of PKC = assay: Protein kinase inhibition assay, mixed isoforms of PKC (histone H1 substrate); assay type: biochemical
Protocol: (§1) After incubation on ice for 10 minutes, the reaction was started by the addition of 10µL of 50 mM magnesium acetate and 0.5 mM [.gamma^32P]ATP (100-200 cpm/pmol). For the assay of mixed isoforms of PKC 20µM diacylglycerol, 0.5 mM CaCl.sub2 and 100µM phosphatidylsene were also present in the incubations. The assays were carried out for 15 minutes at 30° C., then terminated and analyzed as described. See Alessi et al., Methods Enzymol, Vol. 255, pp. 279-290 (1995). One unit of activity was that amount of enzyme that catalyzed the phosphorylation of 1 nmol os substrate in 1 minute. The final concentration of DMSO in each assay was 1% (by vol). […] Mixed isoforms of PKC were assayed using histone H1 as substrate, while MAPKAP-K11 and p70 S6 kinase were assayed using the peptide […] (SEQ ID NO: 14). See Leighton et al. (1995), supra. PK B was assayed with the peptide […] [9] (SEQ ID NO: 5) and MAPKAP-K2 was assayed with the peptide […] (SEQ ID NO: 27). See Stokoe, Caudwell, Cohen and Cohen, Biochem J, Vol. 296, Pt. 3, pp. 843-849 (1993). p42 MAP kinase was assayed using MBP, and MAPKK-1 and c-Raf1 were assayed as described in Alessi et al., Methods Enzymol (1995), supra.

PK B = PK B (Homo sapiens, UniProt P31749); assay: Protein kinase inhibition assay, PK B (peptide […] substrate); assay type: biochemical
Chain of PK B (P31749 whole entry): as the sequence (P31749 whole entry T308A) above, with A308T counted along it
Protocol: as §1

MAPKAP-K1β = target: T2, MAPKAP-K1β (Oryctolagus cuniculus, UniProt A0A5F9C4L9); assay: Protein kinase inhibition assay, MAPKAP-K1β (peptide […] substrate); assay type: biochemical, rabbit
T2 construct: from tissue; host or cells: rabbit skeletal muscle
T2 sequence (A0A5F9C4L9 1-740): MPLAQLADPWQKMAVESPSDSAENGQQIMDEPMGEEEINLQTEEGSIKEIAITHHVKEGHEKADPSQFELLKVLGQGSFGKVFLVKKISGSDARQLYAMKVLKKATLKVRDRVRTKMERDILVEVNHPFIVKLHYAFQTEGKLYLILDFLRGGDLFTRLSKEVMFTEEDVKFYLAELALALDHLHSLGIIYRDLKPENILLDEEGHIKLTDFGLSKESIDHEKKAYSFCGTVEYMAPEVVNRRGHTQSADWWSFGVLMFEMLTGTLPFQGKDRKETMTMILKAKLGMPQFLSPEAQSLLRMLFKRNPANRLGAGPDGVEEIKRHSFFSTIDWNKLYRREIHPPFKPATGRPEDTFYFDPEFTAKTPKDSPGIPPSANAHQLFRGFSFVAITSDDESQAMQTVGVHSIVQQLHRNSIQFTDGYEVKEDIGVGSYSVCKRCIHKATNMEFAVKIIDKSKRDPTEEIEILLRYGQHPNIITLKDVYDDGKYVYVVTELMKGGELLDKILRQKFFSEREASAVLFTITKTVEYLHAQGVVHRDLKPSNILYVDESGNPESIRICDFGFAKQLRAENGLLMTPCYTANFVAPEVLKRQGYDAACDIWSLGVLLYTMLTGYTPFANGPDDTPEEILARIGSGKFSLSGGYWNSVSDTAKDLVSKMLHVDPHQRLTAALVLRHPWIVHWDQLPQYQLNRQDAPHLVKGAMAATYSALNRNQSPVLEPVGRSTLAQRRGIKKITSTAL

p70 S6 kinase = target: T3, p70 S6 kinase (Rattus norvegicus, UniProt P67999); assay: Protein kinase inhibition assay, p70 S6 kinase (peptide […] substrate); assay type: biochemical
T3 construct: from tissue; host or cells: rat liver
T3 sequence (P67999 24-525): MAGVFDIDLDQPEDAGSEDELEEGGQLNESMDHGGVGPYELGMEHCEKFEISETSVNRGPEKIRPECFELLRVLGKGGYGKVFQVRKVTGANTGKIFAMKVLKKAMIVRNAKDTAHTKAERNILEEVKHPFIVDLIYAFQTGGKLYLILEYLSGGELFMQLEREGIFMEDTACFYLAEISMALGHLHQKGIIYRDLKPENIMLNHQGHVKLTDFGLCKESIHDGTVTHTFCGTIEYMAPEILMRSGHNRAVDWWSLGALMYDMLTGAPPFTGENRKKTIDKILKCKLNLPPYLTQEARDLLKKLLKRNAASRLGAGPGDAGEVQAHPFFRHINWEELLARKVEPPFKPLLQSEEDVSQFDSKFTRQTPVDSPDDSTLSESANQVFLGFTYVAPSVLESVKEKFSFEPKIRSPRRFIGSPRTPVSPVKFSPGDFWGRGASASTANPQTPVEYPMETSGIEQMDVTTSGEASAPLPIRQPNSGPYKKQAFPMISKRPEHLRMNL

c-Raf1 = c-Raf1 (Homo sapiens, UniProt P04049); assay: Protein kinase inhibition assay, c-Raf1; assay type: biochemical
Chain of c-Raf1 (P04049 whole entry): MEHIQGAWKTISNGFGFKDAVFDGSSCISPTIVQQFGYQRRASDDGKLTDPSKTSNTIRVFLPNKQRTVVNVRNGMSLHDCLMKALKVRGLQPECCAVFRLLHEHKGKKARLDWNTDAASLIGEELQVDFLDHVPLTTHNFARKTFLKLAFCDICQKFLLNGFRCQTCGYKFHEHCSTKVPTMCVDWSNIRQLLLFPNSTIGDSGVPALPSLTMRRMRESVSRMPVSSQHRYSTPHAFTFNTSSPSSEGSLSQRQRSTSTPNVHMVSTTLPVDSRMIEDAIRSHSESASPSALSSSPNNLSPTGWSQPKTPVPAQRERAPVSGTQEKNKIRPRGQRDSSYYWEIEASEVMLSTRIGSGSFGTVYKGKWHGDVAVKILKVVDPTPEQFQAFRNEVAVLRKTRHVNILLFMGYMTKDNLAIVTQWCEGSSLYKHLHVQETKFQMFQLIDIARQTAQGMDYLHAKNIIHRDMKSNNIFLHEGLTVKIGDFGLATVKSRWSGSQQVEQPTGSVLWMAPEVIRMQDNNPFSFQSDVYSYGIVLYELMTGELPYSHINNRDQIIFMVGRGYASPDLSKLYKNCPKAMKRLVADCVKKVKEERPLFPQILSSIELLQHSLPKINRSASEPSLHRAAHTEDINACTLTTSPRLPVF
Protocol: as §1

MAPKK-1 = MAPKK-1 (Homo sapiens, UniProt Q02750); assay: Protein kinase inhibition assay, MAPKK-1; assay type: biochemical
Chain of MAPKK-1 (Q02750 whole entry, species assumed): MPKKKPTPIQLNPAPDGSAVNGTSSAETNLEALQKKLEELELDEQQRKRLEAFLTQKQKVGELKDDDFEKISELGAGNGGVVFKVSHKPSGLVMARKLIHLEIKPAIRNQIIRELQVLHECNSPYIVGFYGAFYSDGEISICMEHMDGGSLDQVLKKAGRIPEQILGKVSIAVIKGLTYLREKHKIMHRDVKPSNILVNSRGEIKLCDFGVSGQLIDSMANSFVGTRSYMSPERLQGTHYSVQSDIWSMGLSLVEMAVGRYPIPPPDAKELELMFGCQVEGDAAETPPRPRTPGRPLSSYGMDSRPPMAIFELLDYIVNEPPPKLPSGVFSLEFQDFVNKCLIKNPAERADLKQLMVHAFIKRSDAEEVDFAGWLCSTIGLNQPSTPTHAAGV
Protocol: as §1

p42 MAP kinase = p42 MAP kinase (Homo sapiens, UniProt P28482); assay: Protein kinase inhibition assay, p42 MAP kinase (MBP substrate); assay type: biochemical
Chain of p42 MAP kinase (P28482 whole entry): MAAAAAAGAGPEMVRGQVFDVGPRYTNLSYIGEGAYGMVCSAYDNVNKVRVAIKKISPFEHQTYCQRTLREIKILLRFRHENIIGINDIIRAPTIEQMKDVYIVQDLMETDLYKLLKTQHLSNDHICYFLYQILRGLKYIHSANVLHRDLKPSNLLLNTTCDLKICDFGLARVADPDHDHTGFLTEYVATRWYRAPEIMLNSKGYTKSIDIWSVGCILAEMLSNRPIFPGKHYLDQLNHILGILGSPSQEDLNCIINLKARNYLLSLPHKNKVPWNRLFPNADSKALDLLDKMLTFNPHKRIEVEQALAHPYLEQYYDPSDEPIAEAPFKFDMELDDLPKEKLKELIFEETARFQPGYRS
Protocol: as §1

MAPKAP-K2 = target: T4, MAPKAP-K2 (Homo sapiens, UniProt P49137); assay: Protein kinase inhibition assay, MAPKAP-K2 (peptide […] substrate); assay type: biochemical
T4 construct: cDNA encoding residues 46-400 of human MAPKAP kinase-2 was expressed in E. coli as a GST fusion protein; GST; made in house; host or cells: E. coli
T4 sequence (P49137 46-400): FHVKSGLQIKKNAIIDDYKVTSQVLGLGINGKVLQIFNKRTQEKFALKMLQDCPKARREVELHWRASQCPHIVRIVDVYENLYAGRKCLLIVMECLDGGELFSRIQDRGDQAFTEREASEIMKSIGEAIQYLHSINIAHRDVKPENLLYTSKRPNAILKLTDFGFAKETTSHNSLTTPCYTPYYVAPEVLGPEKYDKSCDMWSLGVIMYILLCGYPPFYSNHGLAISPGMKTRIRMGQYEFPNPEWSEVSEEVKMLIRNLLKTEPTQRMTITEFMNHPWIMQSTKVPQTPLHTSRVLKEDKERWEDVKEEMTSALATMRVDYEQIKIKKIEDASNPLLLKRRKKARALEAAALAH
Protocol: as §1

GSK3 = assay type: cell-based
MAPKAP kinase-1 = MAPKAP kinase-1 activation by insulin in L6 myotubes; assay type: cell-based
From the text: (d)—As (c) except that MAPKAP kinase-1 was immunoprecipitated from the lysates and assayed with S6 peptide (filled circles).

RAC-PKα [5] = tested on: RAC-PKα
p70s6k-Myc = assay: Transient cotransfection of RAC-PKα with p70s6k-Myc; assay type: cell-based; conditions: coexpression
Protocol: To examine this possibility, the regulation of p70^[…] is investigated in a transient cotransfection assay using human 293 cells. RAC-PKα constructs are prepared by ligating the RAC-PKα cDNA [see Jones et al. (1991), supra] in-frame to the initiator methionine, in the mammalian expression vector pECE. The construct is also subcloned into a CMV promoter-driven expression vector. The construct is confirmed by restriction analysis and sequencing. Constructs expressing Myc-tagged p70^[…] are obtained from Dr. G. Thomas, […] Institut, Basel, Switzerland. Constructs are transfected into COS cells using standard procedures.

## C[S+]([O-])c1ccc(-c2nc(-c3ccncc3)c(-c3ccc(F)cc3)[nH]2)cc1 (stereo not drawn) [SB 203580]
RAC-PKα [1]
  Effect on activation of RAC-PKα by insulin or IGF-1: had no effect
MAPKAP kinase-2
  Effect on activation of MAPKAP kinase-2: prevented

## HA-308A RAC-PKα: HA-tagged RAC-PKα with Thr308 changed to Ala
RAC-PKα [2]
  Activity as percentage of unstimulated WT enzyme: about 40%

## HA-308D/473D RAC-PK: RAC-PKα with both Thr308 and Ser473 mutated to Asp, constitutively active
RAC-PKα [3]
  Activity relative to unstimulated (dephosphorylated) WT HA-RAC-PKα: 18 fold
GSK3β
  Increase in GSK3 activity on PP2A treatment: 85%
RAC-PKα [4]
  Activity relative to WT HA-RAC-PKα in unstimulated cells: 40 fold

## CN(C)CCCn1cc(C2=C(c3c[nH]c4ccccc34)C(=O)NC2=O)c2ccccc21 [GF 109203X]
Mixed isoforms of PKC
  IC50: 0.03 µM
PK B
  Inhibition of PK B in vitro: without inhibiting
MAPKAP-K1β; read-out: IC50, MAPKAP-K1 B
  IC50: 0.05 µM
p70 S6 kinase
  IC50: 0.1 µM
c-Raf1
  Inhibition of c-Raf1 in vitro: without inhibiting
MAPKK-1
  Inhibition of MAPKK-1 in vitro: without inhibiting
p42 MAP kinase
  Inhibition of p42 MAP kinase in vitro: without inhibiting

## Cn1cc(C2=C(c3cn(CCCSC(=N)N)c4ccccc34)C(=O)NC2=O)c2ccccc21 [Ro 318220]
Mixed isoforms of PKC
  IC50: 0.005 µM
PK B
  IC50: 1 µM
MAPKAP-K1β; read-out: IC50, MAPKAP-K1β
  IC50: 0.003 µM
p70 S6 kinase
  IC50: 0.015 µM
c-Raf1
  Inhibition of c-Raf1 in vitro: not inhibited significantly
MAPKK-1
  Inhibition of MAPKK-1 in vitro: not inhibited significantly
p42 MAP kinase
  Inhibition of p42 MAP kinase in vitro: not inhibited significantly
MAPKAP-K2
  Inhibition of MAPKAP-K2 in vitro: not inhibited significantly

## COc1cccc(-c2cc(=O)c3ccccc3o2)c1N [PD 98059]
GSK3
  Effect on inhibition of GSK3 by insulin: unaffected
MAPKAP kinase-1
  Effect on activation of MAPKAP kinase-1: prevented
RAC-PKα [5]
  Effect on insulin activation of RAC-PK: essentially unaffected

B1: RAC-PKα: human RAC protein kinase α, wild type, SEQ ID NO. 3 (protein)
chain: MNDVAIVKEGWLHKRGEYIKTWRPRYFLLKNDGTFIGYKERPQDVEQRESPLNNFSVAQCQLMKTERPRPNTFIIRCLQWTTVIERTFHVETPEEREEWTTAIQTVADGLKRQEEETMDFRSGSPSDNSGAEEMEVALAKPKHRVTMNEFEYLKLLGKGTFGKVILVKEKATGRYYAMKILKKEVIVAKDEVAHTLTENRVLQNSRHPFLTALKYSFQTHDRLCFVMEYANGGELFFHLSRERVFSEDRARFYGAEIVSALDYLHSEKNVVYRDLKLENLMLDKDGHIKITDFGLCKEGIKDGATMKTFCGTPEYLAPEVLEDNDYGRAVDWWGLGVVMYEMMCGRLPFYNQDHEKLFELILMEEIRFPRTLGPEAKSLLSGLLKKDPTQRLGGGSEDAKEIMQHRFFANIVWQDVYEKKLSPPFKPQVTSETDTRYFDEEFTAQMITITPPDQDDSMECVDSERRPHFPQFSYSASGTA
p70s6k-Myc
  Increase of basal p70s6k-Myc activity: 3.5 fold
  Increase of insulin-stimulated p70s6k-Myc activity: 3 fold
GSK3β
  Increase in GSK3 activity on PP2A treatment: 68%
